Experimental findings from patent publication US20230287027A1, “ADJUVANT WITH TLR4 AGONIST ACTIVITY” (Sumitomo Pharma Co., Ltd, priority 2020, published 2023) are described below.

Assay [1] concerns the target T1, human TLR4 (Homo sapiens, UniProt O00206+Q9Y6Y9).
T1 construct: host or cells: HEK-Blue hTLR4 cell line
Description: Human TLR4 reporter gene assay (Test 1). In kind it is cell-based. The following applies: HEK-Blue hTLR4 cell line, SEAP reporter, 37° C. 16-20 hours, 0.1% DMSO; concentration giving half of maximal SEAP level induced with LPS. An excerpt: Human TLR4 Reporter Gene Assay
(§1) HEK-Blue™ hTLR4 cell line (Invivogen Corporation) is a stably co-transfected cell line which expresses human TLR4, MD2, CD14, and secretory alkaline phosphatase (SEAP) reporter gene under the transcriptional regulation of an NF-κB response element. The TLR4 expression of the cell line has been already tested by RT-PCR, flow cytometry. Transfectants with stable expression were selected using the antibiotic HEK-Blue™ Selection. TLR signaling leads to the translocation of NF-κB and the activation of the promoter results in expression of the SEAP gene. TLR4-specific activation was assessed by determining the level of SEAP produced following incubation of the cells at 37° C. for 16-20 hours with each compound prepared in Examples and Reference examples in the presence of 0.1% (v/v) DMSO. The human TLR4 activity for the present compound was assessed by human TLR4 reporter gene assay, and the concentration of the compound concentration which produced half of the maximal level of SEAP induced with lipopolysaccharide (LPS) was determined as EC50.
In general terms: A reporter such as luciferase makes a cellular process visible.

Assay [2] has as its target T2, mouse TLR4 (Mus musculus, UniProt Q9JHF9+Q9QUK6).
T2 construct: host or cells: HEK-Blue mTLR4 cell line
T2 sequence (Q9QUK6 26-835): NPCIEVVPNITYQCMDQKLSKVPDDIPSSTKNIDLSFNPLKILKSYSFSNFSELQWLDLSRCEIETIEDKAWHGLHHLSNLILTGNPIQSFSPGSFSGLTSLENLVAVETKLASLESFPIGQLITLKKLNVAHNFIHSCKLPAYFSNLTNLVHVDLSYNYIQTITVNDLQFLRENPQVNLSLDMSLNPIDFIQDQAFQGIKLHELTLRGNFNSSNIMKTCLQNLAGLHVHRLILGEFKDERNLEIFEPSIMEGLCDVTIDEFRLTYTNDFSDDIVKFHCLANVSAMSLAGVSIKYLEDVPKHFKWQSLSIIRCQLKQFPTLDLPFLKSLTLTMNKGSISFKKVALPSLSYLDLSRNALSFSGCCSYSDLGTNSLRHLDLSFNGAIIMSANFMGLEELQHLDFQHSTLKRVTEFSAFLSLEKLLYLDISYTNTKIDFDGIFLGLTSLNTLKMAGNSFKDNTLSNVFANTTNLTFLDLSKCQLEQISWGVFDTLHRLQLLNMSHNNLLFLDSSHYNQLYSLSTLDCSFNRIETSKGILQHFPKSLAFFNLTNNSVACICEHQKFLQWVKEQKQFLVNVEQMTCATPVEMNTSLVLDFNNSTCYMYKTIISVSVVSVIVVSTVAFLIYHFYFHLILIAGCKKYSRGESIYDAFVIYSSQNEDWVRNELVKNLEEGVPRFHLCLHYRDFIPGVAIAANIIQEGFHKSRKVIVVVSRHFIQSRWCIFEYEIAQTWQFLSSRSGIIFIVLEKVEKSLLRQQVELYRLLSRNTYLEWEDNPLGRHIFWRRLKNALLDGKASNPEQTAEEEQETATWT
T2 sequence (Q9JHF9 19-160): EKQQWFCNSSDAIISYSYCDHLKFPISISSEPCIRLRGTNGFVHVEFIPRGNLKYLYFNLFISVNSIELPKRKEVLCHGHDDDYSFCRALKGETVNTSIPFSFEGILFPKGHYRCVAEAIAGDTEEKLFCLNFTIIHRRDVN
Description: Mouse TLR4 reporter gene assay (Test 2). In kind it is cell-based. The following applies: HEK-Blue mTLR4 cell line, SEAP reporter, 37° C. 16-20 hours, 0.1% DMSO; concentration giving half of maximal SEAP level induced with LPS.
Description: Mouse TLR4 Reporter Gene Assay
as §1, with “mTLR4” for “hTLR4”, “(Invivogen)” for “(Invivogen Corporation)”, “mouse” for “human”, “CD14” for “CD14,”, “SEAP” for “alkaline phosphatase (SEAP)”, “LPS” for “lipopolysaccharide (LPS)”

T1 sequence (O00206 24-839): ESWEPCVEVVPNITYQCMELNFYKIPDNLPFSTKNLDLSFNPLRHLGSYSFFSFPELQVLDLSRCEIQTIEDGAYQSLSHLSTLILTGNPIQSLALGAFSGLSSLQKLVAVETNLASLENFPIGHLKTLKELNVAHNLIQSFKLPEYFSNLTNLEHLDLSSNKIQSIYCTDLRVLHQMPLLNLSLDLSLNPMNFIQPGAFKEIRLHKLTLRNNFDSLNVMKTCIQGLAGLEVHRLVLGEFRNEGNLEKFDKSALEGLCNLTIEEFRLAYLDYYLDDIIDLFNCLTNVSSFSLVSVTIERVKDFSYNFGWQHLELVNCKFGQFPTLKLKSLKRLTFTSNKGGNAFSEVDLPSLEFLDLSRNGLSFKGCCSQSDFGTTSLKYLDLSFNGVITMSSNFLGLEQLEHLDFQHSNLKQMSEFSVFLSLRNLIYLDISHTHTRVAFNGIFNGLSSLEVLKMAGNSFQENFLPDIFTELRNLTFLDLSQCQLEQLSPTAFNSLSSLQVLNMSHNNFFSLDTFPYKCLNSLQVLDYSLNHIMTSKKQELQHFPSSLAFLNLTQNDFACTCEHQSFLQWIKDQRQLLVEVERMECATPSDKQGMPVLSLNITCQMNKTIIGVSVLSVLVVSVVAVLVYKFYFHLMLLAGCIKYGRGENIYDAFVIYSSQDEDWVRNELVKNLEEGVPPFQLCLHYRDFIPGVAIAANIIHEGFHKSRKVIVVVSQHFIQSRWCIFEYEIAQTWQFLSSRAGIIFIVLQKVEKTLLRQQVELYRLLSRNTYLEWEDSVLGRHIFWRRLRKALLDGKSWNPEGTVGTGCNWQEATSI
T1 sequence (Q9Y6Y9 17-160 limits assumed): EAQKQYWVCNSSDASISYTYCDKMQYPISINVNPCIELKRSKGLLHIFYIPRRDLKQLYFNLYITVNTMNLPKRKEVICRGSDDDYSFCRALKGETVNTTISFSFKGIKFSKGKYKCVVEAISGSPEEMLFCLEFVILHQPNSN

By EC50 is commonly meant the midpoint of the concentration-response curve. On to `CCCCCCCCCCC[C@H](CC(=O)NC(COC1OC(CO)C(OP(=O)(O)O)C(OC(=O)C[C@@H](CCCCCCCCCCC)OC(=O)CCCCCCCCc2ccccc2)C1NC(=O)C[C@@H](CCCCCCCCCCC)OC(=O)CCCCCCCCC)C(=O)O)OC(=O)CCCCCCCCC` (stereo partly shown) [Reference example 10], for which the EC50 in assay [1] and in assay [2] was 12.9 nM each time.

Regarding `CCCCCCCCCCC[C@H](CC(=O)NC(COC1OC(CO)C(OP(=O)(O)O)C(OC(=O)C[C@@H](CCCCCCCCCCC)OC(=O)CCCCCCCCC)C1NC(=O)C[C@@H](CCCCCCCCCCC)OC(=O)CCCCCCCCc1ccccc1)C(=O)O)OC(=O)CCCCCCCCC` (single isomer, unassigned) [compound 11], the values for the EC50 in assay [1] and in assay [2] were 457 nM and 50.3 nM, respectively.

Turning to `CCCCCCCCCCC[C@H](CC(=O)NC1C(OC[C@@H](NC(=O)C[C@@H](CCCCCCCCCCC)OC(=O)CCCCCCCCC)C(=O)O)OC(CO)C(O)C1OC(=O)C[C@@H](CCCCCCCCCCC)OC(=O)CCCCCCCCC)OC(=O)CCCCCCCCc1ccccc1` (stereo partly drawn) [Example 3, (2R)-2-{[(3R)-3-(decanoyloxy)tetradecanoyl]amino}-3-{[4-{[(3R)-3-(decanoyloxy)tetradecanoyl]oxy}-5-hydroxy-6-(hydroxymethyl)-3-({(3R)-3-[(9-phenylnonanoyl)oxy]tetradecanoyl}amino)oxan-2-yl]oxy}propanoic acid], the EC50 was 161 nM in assay [1] and 137 nM in assay [2].

In the case of “(2R)-2-({[(3R)-3-(9-phenylnonanoyl)oxy]tetradecanoyl}amino)-3-{[3-{[(3R)-3-(decanoyloxy)tetradecanoyl]amino}-5-hydroxy-6-(hydroxymethyl)-4-({(3R)-3-(decanoyloxy)tetradecanoyl}oxy)oxan-2-yl]oxy}propanoic acid [Example 4]”, the “human TLR4 EC50” value in assay [1] was found to be 0.077 µg/mL. The “mouse TLR4 EC50” value in assay [2] turned out to be 0.057 µg/mL.

As to `CCCCCCCCCCC[C@H](CC(=O)NC(COC1OC(CO)C(OP(=O)(O)O)C(OC(=O)C[C@@H](CCCCCCCCCCC)OC(=O)CCCCCCCCC)C1NC(=O)C[C@@H](CCCCCCCCCCC)OC(=O)CCCCCCCCc1ccccc1)C(=O)O)OC(=O)CCCCCCCCC` (single isomer, unassigned) [compound 12], the EC50 in assay [1] and in assay [2] was above 645 nM throughout.

Regarding `CCCCCCCCCCC[C@H](CC(=O)NC(COC1OC(CO)C(OP(=O)(O)O)C(OC(=O)C[C@@H](CCCCCCCCCCC)OC(=O)CCCCCCCCC)C1NC(=O)C[C@@H](CCCCCCCCCCC)OC(=O)CCCCCCCCC)C(=O)O)OC(=O)CCCCCCCCc1ccccc1` (stereo partly shown) [compound 13], the EC50 is 34.2 nM in assay [1] and 13.5 nM in assay [2].

`CCCCCCCCCCC[C@H](CC(=O)NC(COC1OC(CO)C(OP(=O)(O)O)C(OC(=O)C[C@@H](CCCCCCCCCCC)OC(=O)CCCCCCCCC)C1NC(=O)C[C@@H](CCCCCCCCCCC)OC(=O)CCCCCCCCC)C(=O)O)OC(=O)CCCCCCCCc1ccccc1` (stereo partly shown) [compound 14]: the EC50 in assay [1] and in assay [2] was 14.2 nM throughout.

Consider `CCCCCCCCCCC[C@H](CC(=O)NC(COC1OC(CO)C(O)C(OC(=O)C[C@@H](CCCCCCCCCCC)OC(=O)CCCCCCCCC)C1NC(=O)C[C@@H](CCCCCCCCCCC)OC(=O)CCCCCCCCC)C(=O)O)OC(=O)CCCCCCCCc1ccccc1` (stereo partly drawn) [Example 5, (2S)-2-({[(3R)-3-(9-phenylnonanoyl)oxy]tetradecanoyl}amino)-3-{[3-{[(3R)-3-(decanoyloxy)tetradecanoyl]amino}-5-hydroxy-6-(hydroxymethyl)-4-({(3R)-3-(decanoyloxy)tetradecanoyl}oxy)oxan-2-yl]oxy}propanoic acid], for which the figures for the EC50 in assay [1] and in assay [2] were 101 nM and 49.7 nM, respectively.
